Measurements taken from patent US20160130259A1, “SUBSTITUTED BENZOFURAN COMPOUNDS AND METHODS OF USE THEREOF FOR THE TREATMENT OF VIRAL DISEASES” (priority 2013, published 2016).

Legend:
HCV replicon genotype 1a = test: HCV replicon assay, genotype 1a (cell ELISA for NS3/4A); type: cell-based; conditions: Hepatitis C virus, 96 h, read-out: 1a IC50 (nM)
Description: (§1) Measurement of inhibition by compounds was performed using the HCV replicon system. Several different replicons encoding different HCV genotypes or mutations were used. In addition, potency measurements were made using different formats of the replicon assay, including different ways of measurements and different plating formats. See Jan M. Vrolijk et al., A replicons-based bioassay for the measurement of interferons in patients with chronic hepatitis C, 110 J. Virological Methods 201 (2003); Steven S. Carroll et al., Inhibition of Hepatitis C Virus RNA Replication by 2′-Modified Nucleoside Analogs, 278(14) J. Biological Chemistry 11979 (2003). However, the underlying principles are common to all of these determinations, and are outlined below.
(§2) Stable neomycin phosphotransferase encoding replicons-harboring cell lines were used, so all cell lines were maintained under G418 selection prior to the assay. Potency was determined using a cell ELISA assay with an antibody to the replicons encoded NS3/4a protease. See Caterina Trozzi et al., In Vitro Selection and Characterization of Hepatitis C Virus Serine Protease Variants Resistant to an Active-Site Peptide Inhibitor, 77(6) J. Virol. 3669 (2003). To initiate an assay, replicon cells were plated in the presence of a dilution series of test compound in the absence of G418. Typically, the assays were performed in a 96-well plate formate for manual operation, or a 384-well plate format for automated assay. Replicon cells and compound were incubated for 96 hours. At the end of the assay, cells were washed free of media and compound, and the cells were then lysed. RNA was quantified indirectly through detection of replicon-encoded NS3/4A protein levels, through an ELISA-based assay with an antibody specific for NS3/4A. IC50 determinations were calculated as a percentage of a DMSO control by fitting the data to a four-parameter fit function and the data obtained is provided in the table below.
(§3) Data for selected compounds of the present invention was obtained for genotypes 1a and 1b using this method and is provided in the table below: […]

HCV replicon genotype 1b = test: HCV replicon assay, genotype 1b (cell ELISA for NS3/4A); type: cell-based; conditions: Hepatitis C virus, 96 h, read-out: 1b IC50 (nM)
Description: as §1, §2, §3

Row | SMILES | IC50 (HCV replicon genotype 1a) [nM] | IC50 (HCV replicon genotype 1b) [nM]
1 | CNC(=O)c1c(-c2ccc(F)cc2)oc2cc(N(C)S(C)(=O)=O)c(-c3cc(-c4cc5c(F)cccc5[nH]4)c(=O)n(C)c3)cc12 [Compound 1, 5-(5-(4-fluoro-1H-indol-2-yl)-1-methyl-6-oxo-1,6-dihydropyridin-3-yl)-2-(4-fluorophenyl)-N-methyl-6-(N-methylmethylsulfonamido)benzofuran-3-carboxamide] | 3.62 | 3.88
2 | CNC(=O)c1c(-c2ccc(F)cc2)oc2cc(N(C)S(C)(=O)=O)c(-c3cc(-c4cc5c(C#N)cccc5[nH]4)c(=O)n(C)c3)cc12 [Compound 2, 5-(5-(4-cyano-1H-indol-2-yl)-1-methyl-6-oxo-1,6-dihydropyridin-3-yl)-2-(4-fluorophenyl)-N-methyl-6-(N-methylmethylsulfonamido)-benzofuran-3-carboxamide] | 2.47 | 2.43
3 | CNC(=O)c1c(-c2ccc(F)cc2)oc2cc(N(C)S(C)(=O)=O)c(-c3cc(-c4cc5c(F)cccc5[nH]4)c(=O)n(C(F)F)c3)cc12 [Compound 3, 5-(1-(difluoromethyl)-5-(4-fluoro-1H-indol-2-yl)-6-oxo-1,6-dihydropyridin-3-yl)-2-(4-fluorophenyl)-N-methyl-6-(N-methylmethyl-sulfonamido)benzofuran-3-carboxamide] | 2.98 | 5.37
4 | CNC(=O)c1c(-c2ccc(F)cc2)oc2cc(N(C)S(C)(=O)=O)c(-c3cc(-c4cnn(-c5ccc(F)cc5)c4)c(=O)n(C)c3)cc12 [Compound 4, 2-(4-fluorophenyl)-5-(5-(1-(4-fluorophenyl)-1H-pyrazol-4-yl)-1-methyl-6-oxo-1,6-dihydropyridin-3-yl)-N-methyl-6-(N-methyl-methylsulfonamido)benzo-furan-3-carboxamide] | 5.71 | 6.81
5 | CNC(=O)c1c(-c2ccc(F)cc2)oc2cc(N(C)S(C)(=O)=O)c(-c3cc(-c4nc5ccccc5o4)c(=O)n(C)c3)cc12 [Compound 5, 5-(5-(benzo[d]oxazol-2-yl)-1-methyl-6-oxo-1,6-dihydropyridin-3-yl)-2-(4-fluorophenyl)-N-methyl-6-(N-methylmethylsulfonamido)benzofuran-3-carboxamide] | 5.82 | 3.71
6 | CNC(=O)c1c(-c2ccc(F)cc2)oc2cc(N(C)S(C)(=O)=O)c(-c3cc(N4Cc5c(F)cccc5C4=O)c(=O)n(C)c3)cc12 [Compound 6, 5-(5-(4-fluoro-1-oxoisoindolin-2-yl)-1-methyl-6-oxo-1,6-dihydropyridin-3-yl)-2-(4-fluorophenyl)-N-methyl-6-(N-methylmethylsulfonamido)benzofuran-3-carboxamide] | 16.5 | 8.38
7 | CNC(=O)c1c(-c2ccc(F)cc2)oc2cc(N(C)S(C)(=O)=O)c(-c3cc(-c4cc5c(F)cccc5n4C)c(=O)n(C)c3)cc12 [Compound 7, 5-(5-(4-fluoro-1-methyl-1H-indol-2-yl)-1-methyl-6-oxo-1,6-dihydropyridin-3-yl)-2-(4-fluorophenyl)-N-methyl-6-(N-methylmethylsulfonamido)benzofuran-3-carboxamide] | 1.55 | 1.1
8 | CNC(=O)c1c(-c2ccc(F)cc2)oc2cc(N(C)S(C)(=O)=O)c(-c3cc(-c4cc5c(F)cccc5n4C)c(=O)n(C(F)F)c3)cc12 [Compound 8, 5-(1-(difluoromethyl)-5-(4-fluoro-1-methyl-1H-indol-2-yl)-6-oxo-1,6-dihydropyridin-3-yl)-2-(4-fluorophenyl)-N-methyl-6-(N-methyl-methylsulfonamido)benzo-furan-3-carboxamide] | 6.45 | 5.95
9 | CNC(=O)c1c(-c2ccc(F)cc2)oc2cc(N(C)S(C)(=O)=O)c(-c3cc(-c4cc5ncccc5o4)c(=O)n(C)c3)cc12 [Compound 9, 2-(4-fluorophenyl)-5-(5-(furo[3,2-b]pyridin-2-yl)-1-methyl-6-oxo-1,6-dihydropyridin-3-yl)-N-methyl-6-(N-methylmethylsulfonamido)benzofuran-3-carboxamide] | 13.4 | 4.16
10 | CNC(=O)c1c(-c2ccc(F)cc2)oc2cc(N(C)S(C)(=O)=O)c(-c3cc(-c4nc5ncccc5o4)c(=O)n(C)c3)cc12 [Compound 10, 2-(4-fluorophenyl)-N-methyl-5-(1-methyl-5-(oxazolo[4,5-b]pyridin-2-yl)-6-oxo-1,6-dihydropyridin-3-yl)-6-(N-methylmethylsulfonamido) benzofuran-3-carboxamide] | 22.7 | 10.1
11 | CNC(=O)c1c(-c2ccc(F)cc2)oc2cc(N(C)S(C)(=O)=O)c(-c3cc(-c4cc5c(F)cccc5[nH]4)cn(C)c3=O)cc12 [Compound 11, 5-(5-(4-fluoro-1H-indol-2-yl)-1-methyl-2-oxo-1,2-dihydropyridin-3-yl)-2-(4-fluorophenyl)-N-methyl-6-(N-methylmethylsulfonamido)benzofuran-3-carboxamide] | 3.84 | 2.67
12 | CNC(=O)c1c(-c2ccc(F)cc2)oc2cc(N(C)S(C)(=O)=O)c(-c3cc(-c4cc5c(C#N)cccc5[nH]4)cn(C)c3=O)cc12 [Compound 12, 5-(5-(4-cyano-1H-indol-2-yl)-1-methyl-2-oxo-1,2-dihydropyridin-3-yl)-2-(4-fluorophenyl)-N-methyl-6-(N-methylmethylsulfonamido) benzofuran-3-carboxamide] | 3.28 | 1.67
13 | CNC(=O)c1c(-c2ccc(F)cc2)oc2cc(N(C)S(C)(=O)=O)c(-c3cc(-c4cc5c(F)cccc5[nH]4)c(=O)n(C)n3)cc12 [Compound 13, 5-(5-(4-fluoro-1H-indol-2-yl)-1-methyl-6-oxo-1,6-dihydropyridazin-3-yl)-2-(4-fluorophenyl)-N-methyl-6-(N-methylmethylsulfonamido)benzofuran-3-carboxamide] | 4.52 | 6.59
14 | CNC(=O)c1c(-c2ccc(F)cc2)oc2cc(N(C)S(C)(=O)=O)c(-c3cc(-c4cc5c(C#N)cccc5[nH]4)c(=O)n(C)n3)cc12 [Compound 14, 5-(5-(4-cyano-1H-indol-2-yl)-1-methyl-6-oxo-1,6-dihydropyridazin-3-yl)-2-(4-fluorophenyl)-N-methyl-6-(N-methylmethylsulfonamido) benzofuran-3-carboxamide] | 3.55 | 4.43
15 | CNC(=O)c1c(-c2ccc(F)cc2)oc2cc(N(C)S(C)(=O)=O)c(-c3cc(-c4cc5ncccc5[nH]4)c(=O)n(C)n3)cc12 [Compound 15, 2-(4-fluorophenyl)-N-methyl-5-(1-methyl-6-oxo-5-(1H-pyrrolo[3,2-b]pyridin-2-yl)-1,6-dihydropyridazin-3-yl)-6-(N-methylmethylsulfonamido) benzofuran-3-carboxamide] | 238 | 81.1
16 | CNC(=O)c1c(-c2ccc(F)cc2)oc2cc(N(C)S(C)(=O)=O)c(-c3cc(-c4cc5c(F)cccc5n4C)c(=O)n(C)n3)cc12 [Compound 16, 5-(5-(4-fluoro-1-methyl-1H-indol-2-yl)-1-methyl-6-oxo-1,6-dihydropyridazin-3-yl)-2-(4-fluorophenyl)-N-methyl-6-(N-methylmethylsulfonamido)benzofuran-3-carboxamide] | 1.38 | 1.38
17 | CNC(=O)c1c(-c2ccc(F)cc2)oc2cc(N(C)S(C)(=O)=O)c(-c3cc(-c4cc5c(C#N)cccc5n4C)c(=O)n(C)n3)cc12 [Compound 17, 5-(5-(4-cyano-1-methyl-1H-indol-2-yl)-1-methyl-6-oxo-1,6-dihydropyridazin-3-yl)-2-(4-fluorophenyl)-N-methyl-6-(N-methylmethylsulfonamido) benzofuran-3-carboxamide] | 2.29 | 4.26
18 | CNC(=O)c1c(-c2ccc(F)cc2)oc2cc(N(C)S(C)(=O)=O)c(-c3cc(-c4cc5c(C#N)cccc5n4CCOC)c(=O)n(C)n3)cc12 [Compound 18, 5-(5-(4-cyano-1-(2-methoxyethyl)-1H-indol-2-yl)-1-methyl-6-oxo-1,6-dihydropyridazin-3-yl)-2-(4-fluorophenyl)-N-methyl-6-(N-methylmethylsulfonamido)benzofuran-3-carboxamide] | 3.15 | 5.02
19 | CNC(=O)c1c(-c2ccc(F)cc2)oc2cc(N(C)S(C)(=O)=O)c(-c3cc(-c4cc5c(F)cccc5[nH]4)nn(C)c3=O)cc12 [Compound 19, 5-(6-(4-fluoro-1H-indol-2-yl)-2-methyl-3-oxo-2,3-dihydropyridazin-4-yl)-2-(4-fluorophenyl)-N-methyl-6-(N-methylmethylsulfonamido)benzofuran-3-carboxamide] | 2.48 | 3.07
20 | CNC(=O)c1c(-c2ccc(F)cc2)oc2cc(N(C)S(C)(=O)=O)c(-c3cn(C)c(=O)c(-c4cc5c(F)cccc5[nH]4)n3)cc12 [Compound 20, 5-(6-(4-fluoro-1H-indol-2-yl)-4-methyl-5-oxo-4,5-dihydropyrazin-2-yl)-2-(4-fluorophenyl)-N-methyl-6-(N-methylmethylsulfonamido)benzofuran-3-carboxamide] | 2.9 | 5.91
